Measurements published in ChEMBL document CHEMBL1135325, “Novel piperidinium and pyridinium agents as water-soluble acetylcholinesterase inhibitors for the reversal of neuromuscular blockade” (Bioorg Med Chem Lett, 2002).

How the values were obtained:
[1] = Aqueous solubility; type: physicochemical; settings: water; for solubility: read-out: S
[2] = molecular target: Acetylcholinesterase (Homo sapiens, UniProt P22303); assay: Concentration required for the inhibition of acetylcholinesterase
[3] = Aqueous solubility

Acetylcholinesterase, sequence (P22303 whole entry): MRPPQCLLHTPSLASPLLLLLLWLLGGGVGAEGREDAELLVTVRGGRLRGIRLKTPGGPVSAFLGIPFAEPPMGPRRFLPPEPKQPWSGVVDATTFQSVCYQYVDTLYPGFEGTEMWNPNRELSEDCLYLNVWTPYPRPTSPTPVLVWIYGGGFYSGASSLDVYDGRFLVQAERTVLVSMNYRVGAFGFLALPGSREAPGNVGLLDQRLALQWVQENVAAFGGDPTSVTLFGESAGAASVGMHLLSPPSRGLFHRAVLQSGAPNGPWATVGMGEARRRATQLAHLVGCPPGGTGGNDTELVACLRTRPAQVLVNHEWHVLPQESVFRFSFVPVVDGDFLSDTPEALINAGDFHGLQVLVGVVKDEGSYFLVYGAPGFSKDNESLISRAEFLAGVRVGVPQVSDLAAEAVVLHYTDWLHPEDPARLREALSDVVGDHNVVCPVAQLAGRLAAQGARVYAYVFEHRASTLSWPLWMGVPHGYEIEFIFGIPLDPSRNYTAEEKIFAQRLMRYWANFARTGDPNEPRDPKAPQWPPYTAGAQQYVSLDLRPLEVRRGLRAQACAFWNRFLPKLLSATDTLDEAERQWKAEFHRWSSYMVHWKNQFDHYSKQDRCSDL

SMILES | solubility [1] [µg/mL] | IC50 [2] [nM] | Solubility [3] [µg/mL] | S [1] [mg/mL]
COc1cc2cc(C(=O)CCc3cc[n+](C)cc3)sc2cc1OC.[Br-] | 3000 | 900 |  | 
COc1cc2cc(C(=O)CCc3cc[n+](CC4CC4)cc3)sc2cc1OC.[Br-] | 15000 | 110 |  | 
CCC[n+]1ccc(CCC(=O)c2cc3cc(OC)c(OC)cc3s2)cc1.[Br-] | 16000 |  |  | 
COCC[n+]1ccc(CCC(=O)c2cc3cc(OC)c(OC)cc3s2)cc1 | 33000 | 30 |  | 
COc1cc2cc(C(=O)CCCCC3CC[N+](C)(Cc4ccccc4)CC3)sc2cc1OC.[Br-] (stereo not drawn) | 1000 | 110 |  | 
COC(=O)c1ccc(C[n+]2ccc(CCC(=O)c3cc4cc(OC)c(OC)cc4s3)cc2)cc1 | 3500 |  |  | 
COc1cc2cc(C(=O)C=C3CC[N+](C)(Cc4ccccc4)CC3)sc2cc1OC.[Br-] (stereo not drawn) | 25000 | 520 |  | 
COc1cc2cc(C(=O)CCc3cc[n+](Cc4ccc([N+](=O)[O-])o4)cc3)sc2cc1OC.[Br-] | 35000 | 4.5 |  | 
COc1cc2cc(C(=O)CCC3CC[N+](C)(Cc4ccc([N+](=O)[O-])o4)CC3)sc2cc1OC.[Br-] (stereo not drawn) | 600 | 32 |  | 
CCOCC[n+]1ccc(CCC(=O)c2cc3cc(OC)c(OC)cc3s2)cc1 | 50000 | 7 |  | 
COc1cc2cc(C(=O)CCC3CC[N+](C)(Cc4ccccc4)CC3)sc2cc1OC.[Br-] (stereo not drawn) | 2000 |  |  | 
COCC[N+]1(C)CCC(CCC(=O)c2cc3cc(OC)c(OC)cc3s2)CC1.[Br-] (stereo not drawn) | 60000 | 53 |  | 
COc1cc2cc(C(=O)CC3(O)CC[N+](C)(Cc4ccccc4)CC3)sc2cc1OC.[Br-] (stereo not drawn) | 1250 |  |  | 
COc1cc2cc(C(=O)CCc3cc[n+](Cc4ccc(F)cc4)cc3)sc2cc1OC | 1000 | 2.6 |  | 
COc1cc2cc(C(=O)CC(O)C3CC[N+](C)(Cc4ccccc4)CC3)sc2cc1OC (stereo in doubt; 9) [listing 1 of 2 here] |  |  | 10000 | 
COc1cc2cc(C(=O)CC(O)C3CC[N+](C)(Cc4ccccc4)CC3)sc2cc1OC.[Br-] (single isomer, unassigned; (+)) | 10000 | 219 |  | 
COc1cc2cc(C(=O)CCC3CC[N+](C)(CC#N)CC3)sc2cc1OC.[Br-] (stereo not drawn) | 2000 | > 1000 |  | 
COc1cc2cc(C(=O)CCc3cc[n+](CC4CCC4)cc3)sc2cc1OC.[Br-] | 6000 | 40 |  | 

SMILES | solubility [1] [µg/mL] | IC50 [2] [nM] | Solubility [3] [µg/mL] | S [1] [mg/mL]
COc1cc2cc(C(=O)CCC3CC[N+](C)(CC4CCCCO4)CC3)sc2cc1OC.[Br-] (stereo not drawn) | 1500 | 28 |  | 
COc1cc2cc(C(=O)CCC3CC[N+](C)(CC(=O)OC(C)(C)C)CC3)sc2cc1OC.[Br-] (stereo not drawn) | 1500 | 79 |  | 
COc1cc2cc(CC3CC[N+](C)(Cc4ccccc4)CC3)sc2cc1OC.[Br-] (stereo not drawn) | 3000 | 10000 |  | 
COc1cc2cc(C(=O)CC(O)CCC3CC[N+](C)(Cc4ccccc4)CC3)sc2cc1OC.[Br-] (stereo not drawn) | 2500 | 380 |  | 
COc1cc2cc(C(=O)CC(O)C3CC[N+](C)(Cc4ccccc4)CC3)sc2cc1OC.[Br-] (single isomer, unassigned; (-)) |  | 665 |  | 8
COc1cc2cc(C(=O)CCc3cc[n+](Cc4ccsc4)cc3)sc2cc1OC | 2000 | 6 |  | 
CC[n+]1ccc(CCC(=O)c2cc3cc(OC)c(OC)cc3s2)cc1.[Br-] | 25000 | 280 |  | 
C=CC[n+]1ccc(CCC(=O)c2cc3cc(OC)c(OC)cc3s2)cc1.[Br-] | 25000 | 540 |  | 
COc1cc2cc(C(=O)CC(OC)C3CC[N+](C)(Cc4ccccc4)CC3)sc2cc1OC.[Br-] (stereo not drawn) | 1500 | 120 |  | 
COc1cc2cc(C(=O)CCc3cc[n+](Cc4ccccc4)cc3)sc2cc1OC | 2000 |  |  | 
COC(=O)C[N+]1(C)CCC(CCC(=O)c2cc3cc(OC)c(OC)cc3s2)CC1.[Br-] (stereo not drawn) | 60000 | 54 |  | 
COc1cc2cc(C(=O)CCC3CC[N+](C)(CCOc4ccccc4)CC3)sc2cc1OC.[Br-] (stereo not drawn) | 900 | 390 |  | 
COc1cc2cc(C(O)C3CC[N+](C)(Cc4ccccc4)CC3)sc2cc1OC.[Br-] (stereo not drawn) | 2000 | 19600 |  | 
COc1cc2cc(C(=O)CC(O)C3CC[N+](C)(Cc4ccccc4)CC3)sc2cc1OC (stereo in doubt; 9) [listing 2 of 2 here] |  | 190 |  | 
COc1cc2cc(C=C3CC[N+](C)(Cc4ccccc4)CC3)sc2cc1OC.[Br-] (stereo not drawn) | 1000 | 2670 |  | 
COc1cc2cc(C(=O)CC3=CC[N+](C)(Cc4ccccc4)CC3)sc2cc1OC.[Br-] (stereo not drawn) | 20000 | 750 |  | 
COc1cc2cc(C(=O)CC(O)C3CC[N+](C)(Cc4ccccc4)CC3)sc2cc1OC.[Br-] (stereo in doubt; 6) |  | 43 |  | 10
